Test: Stability of the vitamin D3+RAMEB complex at 40° C./75% RH in sealed amber glass pill containers
Type: physicochemical
Method: The stability of the vitamin D3+RAMEB complex of Example 1B at 40° C./75% RH was tested and compare to the stability of: 1) pure vitamin D3, 2) a concentrate of vitamin D3 in powder form (DSM).
The study is carried out in pill containers of sealed amber glass (stopper of type for antibiotics, chlorobutyl, grey, D13—natural aluminium crimp-on cap D20 mm, tear-off lid).

For `C=C1CC[C@H](O)C/C1=C/C=C1\CCC[C@]2(C)[C@@H]([C@H](C)CCCC(C)C)CC[C@@H]12` [pure vitamin D3, cholecalciferol], the “% vitamin D3” value (t0) was 98.0%, the “% vitamin D3” value (t0 + 3 weeks, 40° C./75% RH) was 20.3% and the “% vitamin D3” value (t0 + 6 weeks, 40° C./75% RH) was 23.1%.

— patent US20110130370A1, “Pharmaceutical composition comprising a strontium salt, vitamin D and A cyclodextrin” (LES LABORATORIES SERVIER, priority 2009, published 2011)
